Data: patent US9839632B2, “Methods and compositions using 4-amino-2-(2,6-dioxo-piperidine-3-yl)-isoindoline-1,3-dione for treatment and management of central nervous system cancers” (CELGENE CORPORATION, priority 2013, dated 2017)
Where two headings read alike, the source gives them in different places.

Experiment: Blood and brain microdialysis (unbound concentrations) in male CD-IGS rats after single p.o. administration
Type: in vivo, rat
Settings: for Kp / Tmax: rat
Excerpt: Microdialysis: A total of 3 male CD-IGS rats were used. Stomach-cannulated CD-IGS rats (male, weight range: 250-300 g) supplied by Charles River Laboratories were used in this study. Following surgery, all animals were housed in BASi Raturn® containment systems with standard bedding material. Rat chow and water were available ad libitum, and all animals were kept in an ambient temperature room under a 6 am to 6 pm 12-hour lighting schedule.
Animal surgeries consisted of implanting a CMA/20 14/10PC vascular microdialysis probe (Part #8309571, CMA Microdialysis, North Chelmsford, Mass.) in the jugular vein, according to an IACUC protocol. Each animal was then stereotaxically implanted with an intracerebral guide directed toward the top of the striatum (A/P: 0.7, L/M: −3.0, DN: −3.0; from bregma), according to a rat stereotaxic atlas. Paxinos G. F. K., The mouse brain in stereotaxic coordinates (Academic Press, San Diego, Calif.) (2001). A BASi BR-4 brain microdialysis probe (Part # MD-2204, BASi, West Lafayette, Ind.) was inserted prior to recovery, and the probes were slowly perfused (0.5 μL/min) with either sterile lactated Ringer's (brain) or Dulbecco's phosphate-buffered saline (D-PBS; blood). Animals were allowed to recover for at least 24 hours prior to dosing. On the day of dosing, the blank perfusate was replaced with perfusate containing the probe calibrator, and flow was set to 1.25 μl/min. 4-amino-2-(2,6-dioxo-piperidine-3-yl)-isoindoline-1,3-dione was administered as a single p.o. administration via the stomach cannula, at 50 mg/kg (5 mL/kg) in a 0.5% A carboxymethylcellulose/0.25% Tween® 80 suspension formulation.
Microdialysate was collected in a cooling fraction collector, set at 4° C. (Eicom # EFC-82, EFR-82, Eicom, San Diego, Calif.) at intervals of 25 minutes for 10 hours after dosing. To calculate area-under-the-curve (AUC), the corrected concentration of each sample was multiplied by the interval over which the sample was collected; in this case 25 minutes, and divided by 60 minutes per hour. The sum of these values represented the total AUC value over the specified time range. To generate graphs, the concentration at each time point was plotted at the mid-point of each collection interval. Microdialysates were collected at the specified time points and analyzed for 4-amino-2-(2,6-dioxo-piperidine-3-yl)-isoindoline-1,3-dione concentration using a liquid chromatography-tandem mass spectrometry (LC-MS/MS) assay, within 12 hours. Interim storage was at 4° C.
Mass Spectral Analysis: Microdialysate samples were injected directly into the LC-MS/MS system without processing. Chromatographic separation was achieved using a Phenomenex Synergi C18 column (50×4.6 mm, 4 μm) with gradient elution of 0.1% formic acid in water and 0.1% formic acid in acetonitrile. Detection and quantitation were performed using positive electrospray in multiple reaction-monitoring (“MRM”) modes on a Waters Micromass Ultima tandem mass spectrometer. Transition ions monitored were m/z 274.1 to m/z 84.3 for the analyte and m/z 288.0 to m/z 98.0 for the probe calibrator CC-6032. Calibration was performed using weighted (1/x^2) quadratic regression of peak area. Two calibration curves for 4-amino-2-(2,6-dioxo-piperidine-3-yl)-isoindoline-1,3-dione in PBS and lactated ringers solution were constructed using standards at concentrations of 1.28, 2.56, 5.12, 10.2, 25.6, 64.0, 160, 400, 1000, and 2000 ng/mL. A quadratic regression model with a weighting of 1/(x^2) was used for the regression of calibration curves. Concentrations below the limit of quantitation (“BLOQ”) were treated as zero for calculations.

[1] = microdialysis, male CD-IGS rats, single p.o. 50 mg/kg, n = 3, listed as 4-amino-2-(2,6-dioxo-piperidine-3-yl)-isoindoline-1,3-dione, 50 mg/kg
[2] = microdialysis, male CD-IGS rats, single p.o. 50 mg/kg, n = 3, listed as pomalidomide, 50 mg/kg

Nc1cccc2c1C(=O)N(C1CCC(=O)NC1=O)C2=O (centres unmarked) [Pomalidomide, 4-amino-2-(2,6-dioxo-piperidine-3-yl)-isoindoline-1,3-dione]
Kp (male, CD-IGS, oral, 50 mg/kg, crossed the blood brain barrier, rats, read-out: CNS penetration): ~0.39 | AUC(0-10), unbound, Brain [1]: 2700 ± 740 ng·h/mL | Cmax, unbound, Brain [1]: 430 ± 63 ng/mL | AUC ratio Brain:Blood (unbound) [2]: 0.39 ± 0.03 | AUC(0-10), unbound, Blood [2]: 6800 ± 2000 ng·h/mL | AUC(0-10), unbound, Brain [2]: 2700 ± 740 ng·h/mL | Cmax, unbound, Blood [2]: 1100 ± 82 ng/mL | Cmax, unbound, Brain [2]: 430.0 ± 63 ng/mL | Tmax (blood (jugular vein) microdialysate, po, microdialysis, male CD-IGS rats, single p.o. 50 mg/kg, n = 3, read-out: Tmax, unbound, Blood): 4.6 ± 2.4 h | Tmax (brain (striatum) microdialysate, po, microdialysis, male CD-IGS rats, single p.o. 50 mg/kg, n = 3, read-out: Tmax, unbound, Brain): 4.1 ± 1.5 h | Kp (po, microdialysis, male CD-IGS rats, single p.o. 50 mg/kg, n = 3, read-out: AUC ratio Brain:Blood (unbound)): 0.39 ± 0.03
